Data reported in patent US20110178110A1, “Genotype and Expression Analysis for Use in Predicting Outcome and Therapy Selection” (University of Southern California, priority 2008, published 2011).

What was measured:
stage II colon cancer = assay: Tumor recurrence in stage II colon cancer patients treated with 5-FU based adjuvant chemotherapy; format: in vivo, human
Protocol: Methods: Blood specimens from 107 patients (median age of 60 years; range: 22-86) were obtained at the University of Southern California medical facilities. All patients were diagnosed with high-risk, lymph node negative, stage II colon cancer and were uniformly treated with 5-FU based adjuvant chemotherapy. The median follow-up was 4.8 years (range: 0.3-16.8). […] Genomic DNA was extracted from peripheral blood and genotypes were determined using PCR-RFLP.

[1] = system: metastatic adenocarcinoma of the colon or rectum; details: individuals with serum LDH more than 1.5 times the upper limit of normal; interim data; cited from earlier work

| Compound | Probability ± SE of 3-year recurrence (stage II colon cancer) | Median time to recurrence (TTR) (95% CI) (stage II colon cancer; by adjuvant therapy) | clinical benefit when PTK/ZK was added to FOLFOX4, compared to FOLFOX4 plus placebo [1] |
| --- | --- | --- | --- |
| O=c1[nH]cc(F)c(=O)[nH]1 [5-FU, Fluorouracil] | 0.29 ± 0.06 | 9.4 (4.8, 16.8+) yrs | – |
| Clc1ccc(Nc2nnc(Cc3ccncc3)c3ccccc23)cc1.O=C(O)CCC(=O)O [PTK/ZK, 1-[4-Chloroanilino]-4-[4-pyridylmethyl]phthalazine Succinate] | – | – | greater clinical benefit |
